Results from patent US10172837B2, “Insulin sensitisers and methods of treatment” (NAIA Metabolic, Inc., priority 2007, dated 2019).

Experiments:
Format in all cases: in vivo, Mus Musculus
[1] = test system: Diet-Induced Obese (DIO) Mice; experiment: Fasting plasma glucose in diet-induced obese mice; details: for FPG Day −1: before dosing
[2] = test system: Diet-Induced Obese (DIO) Mice; experiment: ipGTT (glucose tolerance) in diet-induced obese mice; details: for AUC Day −1: before dosing
[3] = Body weight of treated diet-induced obese mice
Description: Male C57Bl/6J mice were obtained at 8 weeks of age from Animal Resources Centre (Canning Vale, Western Australia). Animals were individually housed and allowed free movement and ad libitum access to water and food. Animals were maintained on a 12 hour light (6 am-6 pm) and 12 hour dark (6 pm-6 am) cycle. Animals were monitored daily. Body weight, food and water intake were recorded 3 times a week.

db/db mice = experiment: Fasting plasma glucose in db/db mice; details: for FPG Day 0: Metformin 300 mg/kg group
Excerpt: The db/db mouse model comprises mice with a homozygous mutation of the leptin receptor gene that ablates leptin signalling in the hypothalamus and elsewhere. The db/db mouse model is commonly used to study the genetic and physiological mechanisms of obesity and type II diabetes. […] Leptin acts through the leptin receptor to control whole-body energy homeostasis by regulating both appetite and energy expenditure. Loss of function of the leptin receptor gene results in hyperphagia and slower metabolism, leading to obesity and eventually diabetes. […] Dosing solutions of the test articles: Methazolamide, Metformin and Methazolamide/Metformin were prepared fresh on each dosing day and stored at room temperature, protected from light. The compound was formulated in sterile vehicle: […] Stock solutions were prepared by dissolving the compound in NMP:PEG300 (1:2, v/v). Saline was added to the stock solution prior to administration of the compound. The solutions were mixed by vortexing immediately prior to dosing to ensure a homogeneous suspension of the compound. Male C57Bl/6J db/db mice were obtained at 10 weeks of age from Animal Resources Centre ([…], Western Australia). Animals were individually housed and allowed free movement and ad libitum access to water and food. Animals were maintained on a 12 hour light (6 am-6 pm) and 12 hour dark (6 pm-6 am) cycle. Animals were monitored daily. Body weight, food and water intake were recorded 3 times a week. Mice were fed a standard chow diet, and used after a two week acclimatisation period. […] The fasting plasma glucose levels of the animals was tested prior to commencement of the study and then every 3-4 days during dosing. The animals were fasted for a period of 4 hours after dosing and prior to the taking of a blood sample via a tail nick. Blood glucose levels were monitored using commercially available glucometers (Accuchek Advantage, Roche) based on the electric current generated when a blood drop is spotted on a test strip resulting in conversion of the glucose present in the sample to gluconolactone by the glucose dehydrogenase enzyme, in the presence of the coenzyme (PQQ).

[4] = Chlorthalidone 10 mg/kg oral gavage
[5] = Chlorthalidone 20 mg/kg oral gavage
[6] = Chlorthalidone 50 mg/kg oral gavage
[7] = Furosemide 10 mg/kg oral gavage
[8] = Furosemide 20 mg/kg oral gavage
[9] = Furosemide 50 mg/kg oral gavage
[10] = Acetazolamide 10 mg/kg b.i.d. oral gavage
[11] = Acetazolamide 20 mg/kg b.i.d. oral gavage
[12] = Acetazolamide 50 mg/kg b.i.d. oral gavage
[13] = Metformin 300 mg/kg oral gavage

NS(=O)(=O)c1cc(C2(O)NC(=O)c3ccccc32)ccc1Cl (stereo not drawn) [Chlorthalidone]
effect on fasting plasma glucose levels of diet-induced obese mice [1]: no beneficial effect | FPG Day −1 ([1]; Chlorthalidone 10 mg/kg group): 7.8 ± 0.31 mM | Delta FPG Treatment Day 13 vs Day −1 [1, 4]: 4% | FPG Day 13 [1, 4]: 8.08 ± 0.35 mM | FPG Treatment vs Vehicle Day 13 [1, 4]: 5% | FPG Day −1 ([1]; Chlorthalidone 20 mg/kg group): 7.58 ± 0.18 mM | Delta FPG Treatment Day 13 vs Day −1 [1, 5]: −7% | FPG Day 13 [1, 5]: 7.08 ± 0.31 mM | FPG Treatment vs Vehicle Day 13 [1, 5]: −8% | FPG Day −1 ([1]; Chlorthalidone 50 mg/kg group): 7.94 ± 0.4 mM | Delta FPG Treatment Day 13 vs Day −1 [1, 6]: −7% | FPG Day 13 [1, 6]: 7.4 ± 0.51 mM | FPG Treatment vs Vehicle Day 13 [1, 6]: −4% | effect on glucose tolerance of diet-induced obese mice [2]: no beneficial effect | AUC Day −1 ([2]; Chlorthalidone 10 mg/kg group): 1439 ± 137 mM·min | AUC Day 13 [2, 4]: 1660 ± 137 mM·min | AUC Treatment vs Vehicle Day 13 [2, 4]: 29% | Delta AUC Treatment Day 13 vs Day −1 [2, 4]: 15% | AUC Day −1 ([2]; Chlorthalidone 20 mg/kg group): 1416 ± 110 mM·min | AUC Day 13 [2, 5]: 1263 ± 75 mM·min | AUC Treatment vs Vehicle Day 13 [2, 5]: −2% | Delta AUC Treatment Day 13 vs Day −1 [2, 5]: −11% | AUC Day −1 ([2]; Chlorthalidone 50 mg/kg group): 1398 ± 87 mM·min | AUC Day 13 [2, 6]: 1512 ± 46 mM·min | AUC Treatment vs Vehicle Day 13 [2, 6]: 17% | Delta AUC Treatment Day 13 vs Day −1 [2, 6]: 8%

NS(=O)(=O)c1cc(C(=O)O)c(NCc2ccco2)cc1Cl [Furosemide]
FPG Day −1 ([1]; Furosemide 10 mg/kg group): 7.28 ± 0.3 mM | Delta FPG Treatment Day 13 vs Day −1 [1, 7]: 24% | FPG Day 13 [1, 7]: 9.02 ± 0.4 mM | FPG Treatment vs Vehicle Day 13 [1, 7]: 4% | FPG Day −1 ([1]; Furosemide 20 mg/kg group): 7.4 ± 0.4 mM | Delta FPG Treatment Day 13 vs Day −1 [1, 8]: 15% | FPG Day 13 [1, 8]: 8.50 ± 0.4 mM | FPG Treatment vs Vehicle Day 13 [1, 8]: −2% | FPG Day −1 ([1]; Furosemide 50 mg/kg group): 6.78 ± 0.3 mM | Delta FPG Treatment Day 13 vs Day −1 [1, 9]: 20% | FPG Day 13 [1, 9]: 8.16 ± 0.6 mM | FPG Treatment vs Vehicle Day 13 [1, 9]: −6% | outcome of animals ([3]; 100 mg/kg/d, DIO mice): had to be euthanized | body weight lost ([3]; 100 mg/kg/d, in 5 days, DIO mice): ~6 g | body weight effect ([3]; DIO mice, consistent with a toxic effect): substantial body weight loss

CC(=O)Nc1nnc(S(N)(=O)=O)s1 [Acetazolamide]
effect on fasting plasma glucose levels of diet-induced obese mice [1]: reduced the fasting plasma glucose levels | Delta FPG Treatment Day 13 vs Day −1 [1, 10]: −9% | FPG Day 13 [1, 10]: 5.76 ± 0.43 mM | FPG Treatment vs Vehicle Day 13 [1, 10]: −9% | FPG Day −1 ([1]; Acetazolamide 10 mg/kg group): 6.35 ± 0.5 mM | Delta FPG Treatment Day 13 vs Day −1 [1, 11]: −14%^2 | FPG Day 13 [1, 11]: 5.46 ± 0.32 mM | FPG Treatment vs Vehicle Day 13 [1, 11]: −14%^1 | FPG Day −1 ([1]; Acetazolamide 20 mg/kg group): 6.32 ± 0.42 mM | Delta FPG Treatment Day 13 vs Day −1 [1, 12]: −5% | FPG Day 13 [1, 12]: 6.28 ± 0.31 mM | FPG Treatment vs Vehicle Day 13 [1, 12]: −1% | FPG Day −1 ([1]; Acetazolamide 50 mg/kg group): 6.62 ± 0.38 mM | effect on glucose tolerance of diet-induced obese mice [2]: increased the glucose tolerance | AUC Day 13 [2, 10]: 944 ± 26 mM·min | AUC Treatment vs Vehicle Day 13 [2, 10]: −22%^2 | Delta AUC Treatment Day 13 vs Day −1 [2, 10]: −30%^1 | AUC Day −1 ([2]; Acetazolamide 10 mg/kg group): 1342 ± 88 mM·min | AUC Day 13 [2, 11]: 902 ± 98 mM·min | AUC Treatment vs Vehicle Day 13 [2, 11]: −25%^3 | Delta AUC Treatment Day 13 vs Day −1 [2, 11]: −33%^1 | AUC Day −1 ([2]; Acetazolamide 20 mg/kg group): 1340 ± 68 mM·min | AUC Day 13 [2, 12]: 1020 ± 144 mM·min | AUC Treatment vs Vehicle Day 13 [2, 12]: −15%^ | Delta AUC Treatment Day 13 vs Day −1 [2, 12]: −23%^2 | AUC Day −1 ([2]; Acetazolamide 50 mg/kg group): 1323 ± 109 mM·min | difference in body weight between treated groups ([3]; Day 0 or Day 13, DIO mice): no difference in body weight

CN(C)C(=N)N=C(N)N [Metformin]
FPG Day −1 ([1]; Metformin 300 mg/kg group): 6.1 ± 0.6 mM | Delta FPG Treatment Day 13 vs Day −1 [1, 13]: 11% | Delta FPG Treatment vs Vehicle Day 13 [1, 13]: −11% | FPG Day 13 [1, 13]: 6.8 ± 0.4 mM | AUC Day −1 ([2]; Metformin 300 mg/kg group): 1171 ± 81 mM·min | AUC Day 13 [2, 13]: 1307 ± 91 mM·min | AUC Day 13 Treat vs Veh [2, 13]: 8% | Delta AUC Day 13 vs Day −1 [2, 13]: 12% | FPG Day 0 (db/db mice; before dosing (Table 9-1)): 23.86 ± 1.4 mM | FPG Day 0 (db/db mice; before dosing (Table 9-2)): 23.86 ± 1.4 mM | Delta FPG Treatment Day 8 vs Day 0 (db/db mice; [13]): −20%^2 | Delta FPG Treatment Day 18 vs Day 0 (db/db mice; [13]): −16%^ | FPG Day 8 (db/db mice; [13]): 19.10 ± 2.1 mM | FPG Day 18 (db/db mice; [13]): 20.01 ± 1.8 mM | FPG Treatment vs Vehicle Day 8 (db/db mice; [13]): −18%^ | FPG Treatment vs Vehicle Day 18 (db/db mice; [13]): −27%^4
